Target: T1, Human CaV2.2 channels (Homo sapiens, UniProt Q00975)
T1 construct: expressed in transfected cells
Assay: Fluorescent assay for CaV2.2 channels using potassium depolarization to induce channel opening (FLIPR, Fluo-4)
Type: cell-based
Settings: 3 μM test compound, 30 mM KCl, HEK293 cells stably expressing human CaV2.2; read-out: %-Inhib (CaV2.2) @3 μM @30 mM KCl
Outline: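 HEK293 cells stably co-expressing CaV2.2 with α2δ and β subunits plus Kir2.3 were Fluo-4 loaded, then preincubated 15 min at 25 °C with compound in 30 mM KCl buffer, pH 7.4. Depolarization was by adding buffer containing 210 mM KCl. Inhibition was taken from baseline-normalized peak fluorescence amplitude (ex 480/em 535 nm).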

T1 sequence (Q00975 whole entry): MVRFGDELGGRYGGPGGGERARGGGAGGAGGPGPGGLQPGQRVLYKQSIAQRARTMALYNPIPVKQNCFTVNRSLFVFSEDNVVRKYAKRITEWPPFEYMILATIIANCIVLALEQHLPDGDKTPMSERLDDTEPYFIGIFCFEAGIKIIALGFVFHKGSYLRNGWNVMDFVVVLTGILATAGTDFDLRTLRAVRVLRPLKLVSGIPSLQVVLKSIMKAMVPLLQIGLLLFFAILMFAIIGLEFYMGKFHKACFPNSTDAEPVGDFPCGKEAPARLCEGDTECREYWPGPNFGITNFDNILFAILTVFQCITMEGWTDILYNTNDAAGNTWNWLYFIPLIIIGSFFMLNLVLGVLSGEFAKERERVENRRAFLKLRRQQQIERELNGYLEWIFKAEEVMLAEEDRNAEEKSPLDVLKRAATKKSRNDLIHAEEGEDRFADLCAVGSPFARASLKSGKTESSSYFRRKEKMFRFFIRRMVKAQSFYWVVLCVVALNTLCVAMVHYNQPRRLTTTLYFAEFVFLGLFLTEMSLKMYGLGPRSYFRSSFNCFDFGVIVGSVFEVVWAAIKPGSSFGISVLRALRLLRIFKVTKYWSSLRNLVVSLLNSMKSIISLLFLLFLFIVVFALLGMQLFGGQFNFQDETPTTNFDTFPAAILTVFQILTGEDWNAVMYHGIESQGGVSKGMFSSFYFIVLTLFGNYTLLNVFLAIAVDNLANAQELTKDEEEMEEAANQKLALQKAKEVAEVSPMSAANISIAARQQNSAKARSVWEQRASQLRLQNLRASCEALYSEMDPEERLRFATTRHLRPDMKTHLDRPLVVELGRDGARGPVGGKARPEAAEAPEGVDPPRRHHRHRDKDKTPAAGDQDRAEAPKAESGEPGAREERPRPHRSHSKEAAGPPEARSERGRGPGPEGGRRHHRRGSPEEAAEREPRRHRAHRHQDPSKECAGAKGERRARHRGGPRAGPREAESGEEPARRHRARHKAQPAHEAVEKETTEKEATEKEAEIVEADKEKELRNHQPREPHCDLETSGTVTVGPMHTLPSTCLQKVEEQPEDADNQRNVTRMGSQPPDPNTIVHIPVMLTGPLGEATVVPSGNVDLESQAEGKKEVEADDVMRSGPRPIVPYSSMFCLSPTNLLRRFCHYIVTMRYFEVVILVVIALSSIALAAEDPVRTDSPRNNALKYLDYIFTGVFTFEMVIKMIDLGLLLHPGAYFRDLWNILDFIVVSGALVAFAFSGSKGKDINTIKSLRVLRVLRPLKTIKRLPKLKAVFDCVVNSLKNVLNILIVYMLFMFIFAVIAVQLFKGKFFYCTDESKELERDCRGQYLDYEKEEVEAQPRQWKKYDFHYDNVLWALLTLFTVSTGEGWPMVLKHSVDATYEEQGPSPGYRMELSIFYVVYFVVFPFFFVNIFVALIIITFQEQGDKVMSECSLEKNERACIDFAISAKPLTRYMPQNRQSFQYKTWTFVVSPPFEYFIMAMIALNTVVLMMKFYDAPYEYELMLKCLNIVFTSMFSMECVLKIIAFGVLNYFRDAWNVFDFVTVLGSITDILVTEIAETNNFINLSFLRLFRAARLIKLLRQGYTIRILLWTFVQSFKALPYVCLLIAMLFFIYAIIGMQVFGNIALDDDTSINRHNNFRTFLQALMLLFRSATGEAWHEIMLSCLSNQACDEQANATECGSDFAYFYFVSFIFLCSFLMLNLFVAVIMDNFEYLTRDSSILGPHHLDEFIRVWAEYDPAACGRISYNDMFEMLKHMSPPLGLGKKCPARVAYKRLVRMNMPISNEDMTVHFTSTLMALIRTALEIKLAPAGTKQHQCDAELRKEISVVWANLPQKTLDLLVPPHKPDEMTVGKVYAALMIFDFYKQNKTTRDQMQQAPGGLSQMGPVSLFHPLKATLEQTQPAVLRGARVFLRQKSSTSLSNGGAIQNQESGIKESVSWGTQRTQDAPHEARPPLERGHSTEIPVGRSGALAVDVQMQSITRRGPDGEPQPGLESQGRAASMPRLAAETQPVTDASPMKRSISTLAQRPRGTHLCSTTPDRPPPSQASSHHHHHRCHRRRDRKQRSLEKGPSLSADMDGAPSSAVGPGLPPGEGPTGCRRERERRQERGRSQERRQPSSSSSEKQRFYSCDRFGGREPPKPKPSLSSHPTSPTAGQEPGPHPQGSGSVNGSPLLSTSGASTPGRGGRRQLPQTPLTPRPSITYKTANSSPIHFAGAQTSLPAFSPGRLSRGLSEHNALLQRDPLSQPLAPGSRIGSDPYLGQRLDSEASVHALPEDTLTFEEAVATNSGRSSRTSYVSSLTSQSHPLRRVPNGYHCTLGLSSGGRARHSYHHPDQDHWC
T1 sequence (P54289 25-1103, further chain): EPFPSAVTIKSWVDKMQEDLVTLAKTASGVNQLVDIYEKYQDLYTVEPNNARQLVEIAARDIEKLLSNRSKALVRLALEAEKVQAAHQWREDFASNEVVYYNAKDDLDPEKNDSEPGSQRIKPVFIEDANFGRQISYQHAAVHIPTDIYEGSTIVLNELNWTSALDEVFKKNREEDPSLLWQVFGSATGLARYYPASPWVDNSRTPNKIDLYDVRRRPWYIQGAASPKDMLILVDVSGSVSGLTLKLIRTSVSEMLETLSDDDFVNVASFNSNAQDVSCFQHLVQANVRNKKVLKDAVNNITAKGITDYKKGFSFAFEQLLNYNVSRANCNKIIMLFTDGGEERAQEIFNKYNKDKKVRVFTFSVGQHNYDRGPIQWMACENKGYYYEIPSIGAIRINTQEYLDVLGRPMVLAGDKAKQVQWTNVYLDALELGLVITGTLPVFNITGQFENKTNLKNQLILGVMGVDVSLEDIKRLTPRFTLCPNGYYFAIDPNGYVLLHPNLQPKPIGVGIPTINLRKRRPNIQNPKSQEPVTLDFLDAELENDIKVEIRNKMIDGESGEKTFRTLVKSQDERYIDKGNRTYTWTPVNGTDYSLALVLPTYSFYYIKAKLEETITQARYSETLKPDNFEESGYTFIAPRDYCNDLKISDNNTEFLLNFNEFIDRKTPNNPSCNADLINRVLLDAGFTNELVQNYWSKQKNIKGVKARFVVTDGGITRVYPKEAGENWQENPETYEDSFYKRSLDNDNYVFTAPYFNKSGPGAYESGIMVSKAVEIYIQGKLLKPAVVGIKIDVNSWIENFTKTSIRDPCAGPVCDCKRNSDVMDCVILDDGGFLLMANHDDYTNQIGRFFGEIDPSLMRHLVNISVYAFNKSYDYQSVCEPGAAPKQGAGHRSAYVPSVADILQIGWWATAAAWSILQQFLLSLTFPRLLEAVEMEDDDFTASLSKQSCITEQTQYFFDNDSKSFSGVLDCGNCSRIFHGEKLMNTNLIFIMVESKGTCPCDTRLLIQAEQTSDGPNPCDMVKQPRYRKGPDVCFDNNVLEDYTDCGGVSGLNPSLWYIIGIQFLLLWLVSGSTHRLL
T1 sequence (P54284 whole entry, further chain): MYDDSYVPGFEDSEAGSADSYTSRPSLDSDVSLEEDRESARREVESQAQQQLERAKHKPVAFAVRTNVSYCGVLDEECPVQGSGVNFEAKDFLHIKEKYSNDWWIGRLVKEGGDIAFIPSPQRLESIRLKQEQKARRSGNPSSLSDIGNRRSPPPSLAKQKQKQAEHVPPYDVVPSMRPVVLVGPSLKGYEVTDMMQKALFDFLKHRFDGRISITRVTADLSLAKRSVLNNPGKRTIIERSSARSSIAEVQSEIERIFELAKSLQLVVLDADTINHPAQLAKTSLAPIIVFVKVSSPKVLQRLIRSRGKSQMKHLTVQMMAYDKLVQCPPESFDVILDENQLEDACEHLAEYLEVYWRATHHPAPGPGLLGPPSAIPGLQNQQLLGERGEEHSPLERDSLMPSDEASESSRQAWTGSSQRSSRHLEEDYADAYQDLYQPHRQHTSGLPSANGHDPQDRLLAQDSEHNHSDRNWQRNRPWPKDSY

First: Cc1c(-c2ccc(OCC(F)(F)F)cc2)c(C(=O)N(C)CC(C)(C)C)n(Cc2ccccc2)c1C(F)(F)F [SC-260, 1-Benzyl-N,4-dimethyl-N-neopentyl-3-(4-(2,2,2-trifluoroethoxy)phenyl)-5-(trifluoromethyl)-1H-pyrrole-2-carboxamide]
Second: Cc1c(-c2ccc(OCC(F)(F)F)cc2)c(C(=O)N2CCOCC2)n(Cc2ccccc2)c1C(F)(F)F [SC-263, [1-Benzyl-4-methyl-3-[4-(2,2,2-trifluoro-ethoxy)-phenyl]-5-(trifluoromethyl)-1H-pyrrol-2-yl]-morpholin-4-yl-methanone]
The inhibition at 3 µM of the first is lower: 40 to 75% for the first, 75 to 95% for the second.

`CN(CC(C)(C)C)C(=O)c1c(-c2ccc(Cl)cc2)cc(C(F)(F)F)n1Cc1ccc(F)cc1` [SC-261, 3-(4-Chlorophenyl)-N-(2,2-dimethyl-propyl)-1-[(4-fluorophenyl)-methyl]-N-methyl-5-(trifluoromethyl)-1H-pyrrole-2-carboxylic acid amide] and `CN(CC(C)(C)C)C(=O)c1c(-c2ccc(Cl)cc2)cc(C(F)(F)F)n1Cc1cccc(S(C)(=O)=O)c1` [SC-266, 3-(4-Chlorophenyl)-N-(2,2-dimethyl-propyl)-N-methyl-1-[(3-methylsulfonyl-phenyl)-methyl]-5-(trifluoromethyl)-1H-pyrrole-2-carboxylic acid amide] fall in the same range of inhibition at 3 µM: 75 to 95% for the first, 75 to 95% for the second.

`Cc1c(-c2ccc(OC(F)(F)F)cc2F)c(C(=O)N2CCOCC2)n(Cc2ccccc2)c1C(F)(F)F` [SC-262, (1-benzyl-3-(2-fluoro-4-(trifluoromethoxy)phenyl)-4-methyl-5-(trifluoromethyl)-1H-pyrrol-2-yl)(morpholino)methanone] and `Cc1c(-c2ccc(C#N)cc2F)c(C(=O)N2CCOCC2)n(Cc2ccccc2)c1C(F)(F)F` [SC-264, 4-[1-Benzyl-4-methyl-2-(morpholine-4-carbonyl)-5-(trifluoromethyl)-1H-pyrrol-3-yl]-3-fluoro-benzonitrile] fall in the same range of inhibition at 3 µM: 75 to 95% for the first, 75 to 95% for the second.
